“And” between values parts separate entries of the source, which are not always exact repeats. Identical values can stand only once.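 All cell lines were grown in 96-well plates and treated with compound for 48 hours. GI50 is the concentration that inhibits growth by half. TGI: concentration producing complete growth inhibition.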
Experiments:
Assay in all cases: growth of human tumour cells (NCI), 48 h
A549 NSCLC = tested on: A549 NSCLC
CAKI-1 renal = tested on: CAKI-1 renal
CCRF-CEM leukemia = tested on: CCRF-CEM leukemia
EKVX NSCLC = tested on: EKVX NSCLC
HCT-116 colon = tested on: HCT-116 colon
HOP-62 NSCLC = tested on: HOP-62 NSCLC
KM12 colon = tested on: KM12 colon
MOLT-4 leukemia = tested on: MOLT-4 leukemia
NCI-H226 lung = tested on: NCI-H226 lung
NCI-H522 lung = tested on: NCI-H522 lung

SMILES | GI50 (A549 NSCLC) | TGI (A549 NSCLC) [µM] | GI50 (CAKI-1 renal) [µM] | TGI (CAKI-1 renal) [µM] | GI50 (CCRF-CEM leukemia) | TGI (CCRF-CEM leukemia) | GI50 (EKVX NSCLC) [µM] | TGI (EKVX NSCLC) [µM] | GI50 (HCT-116 colon) | TGI (HCT-116 colon) [µM] | GI50 (HOP-62 NSCLC) | TGI (HOP-62 NSCLC) | GI50 (KM12 colon) | TGI (KM12 colon) [µM] | GI50 (MOLT-4 leukemia) | TGI (MOLT-4 leukemia) [µM] | GI50 (NCI-H226 lung) | TGI (NCI-H226 lung) | GI50 (NCI-H522 lung) [µM] | TGI (NCI-H522 lung) [µM]
N#Cc1c(NCc2ccccc2)nc(NCc2ccccc2)c(C#N)c1-c1ccc(Cl)cc1 | > 50 µM and 51.5 µM | > 100 | > 100 | > 100 | > 50 µM and 22.5 µM | > 50 µM and 49.5 µM | 50.8 | > 100 | > 50 µM and 24.6 µM | > 100 | > 50 µM and 22.3 µM | > 50 µM and 62.7 µM | > 50 µM and 85.8 µM | > 100 | > 50 µM and 76.9 µM | > 100 | > 50 µM and 25.6 µM | > 50 µM and 81.4 µM | 31.7 | > 100
NC(=O)c1cccc2c(N[C@H](CN3CCC3)c3ccc(Cl)c(C(F)(F)F)c3)ncnc12 | 1.47 µM | 12.4 | 0.232 | 3.39 | 0.871 µM | 12 µM | 0.878 | 10.3 | 2.32 µM | 11.7 | 0.964 µM | 14.5 µM | 0.885 µM | 13.3 | 0.257 µM | 3.46 | 1.99 µM | 16.2 µM | 5.1 | 20.3
O=C(O)CCCCn1ccc(=O)[nH]c1=O |  | > 100 |  | > 100 |  | > 100 µM |  | > 100 |  | > 100 |  | > 100 µM |  | > 100 |  | > 100 |  | > 100 µM |  | > 100
CNS(=O)(=O)OCC1OC(n2cnc3cncnc32)C(O)C1O (centres undefined) | > 100 µM | > 100 | > 100 | > 100 | > 100 µM | > 100 µM | > 100 | > 100 | > 100 µM | > 100 | > 100 µM | > 100 µM | > 100 µM | > 100 | > 100 µM | > 100 | > 100 µM | > 100 µM | > 100 | > 100
ClCCCSSCCCCl |  | > 100 |  | > 100 |  | > 43.9 µM |  | > 100 |  | > 90.8 |  | > 100 µM |  | > 95.1 |  | 7.42 |  | > 100 µM |  | 65.6
O=C1C(=c2ccc(=C3C(=O)c4ccc([N+](=O)[O-])cc4[N+]3=O)cc2)N([O-])c2cc([N+](=O)[O-])ccc21 | > 100 µM | > 100 | > 100 | > 100 | > 100 µM | > 100 µM | > 100 | > 100 | > 100 µM | > 100 |  | > 100 µM | > 100 µM | > 100 | > 100 µM | > 100 | > 100 µM | > 100 µM | > 100 | > 100
COc1cc2c3c(n(CCCN4CCNCC4)c(=O)c2cc1OC)-c1cc2c(cc1C3=O)OCO2 | 0.0393 µM | 0.922 | 0.128 | 2.02 | 0.0118 µM | 0.389 µM | 8.51 | 17.2 | 0.281 µM | 2.42 | 0.0265 µM | 0.138 µM | 0.633 µM | 2.24 | 0.005 µM | 0.533 | 0.127 µM | 3.71 µM | 2.18 | 15.7
O=C1Nc2ccccc2/C1=C\c1c(-c2ccccc2)nc2sccn12 | 3.5 µM | > 100 | 1.29 | 4.74 | 0.689 µM | 19.8 µM | 7.84 | 32.6 | 1.7 µM | 8.96 | 2.32 µM | 9.44 µM | 0.833 µM | 20.1 | 1.1 µM | > 37.5 | 4.27 µM | 23 µM | 1.44 | 14.6
CCn1c(-c2nonc2N)nc2c(C#CC(C)(C)O)ncc(OC3CCNCC3)c21 | > 25 µM | > 25 | > 25 | > 25 | 5.18 µM | > 25 µM | > 25 | > 25 | 8.15 µM | > 25 | > 16.4 µM | > 25 µM | 4.52 µM | > 25 | 6.32 µM | > 25 | 23.3 µM | > 25 µM | 4.42 | 8.82
COc1cc2c(NCCCCCO)ncnc2c(OC)c1OC |  | > 100 |  | > 100 |  | > 100 µM |  | > 100 |  | > 100 |  | > 100 µM |  | > 100 |  | > 100 |  | > 100 µM |  | > 100
COC(=O)Oc1nn(C(=O)OC)c(=O)c2ccccc12 |  | > 100 |  | > 100 |  | > 100 µM |  | > 100 |  | > 100 |  | > 100 µM |  | > 100 |  | > 100 |  | > 100 µM |  | > 100
Fc1cc(F)c(F)c(S)c1F |  | > 100 |  | > 100 |  | > 100 µM |  | 55.2 |  | > 100 |  | > 100 µM |  | > 100 |  | 66 |  | > 100 µM |  | 37.8
